Test results: patent US8575188B2 (priority 2009, dated 2013)
Like-named read-outs stand apart in the source and are kept apart here.

Tests used:
[1] = In vivo pharmacokinetics, oral gavage; details: CD-mice, oral gavage
Protocol: The data normalized to a 50 mg/kg dose are shown below (compounds were dosed at either 25 or 50 mg/kg).

[2] = tested on: BCRP, which over expressed the breast cancer resistance protein; assay: Efflux pump drug resistance, antiproliferation assay, BCRP over expressing line
Protocol: (§1) The compounds were screened for cytotoxicity using human non small cell lung cancer cell line H460. […]
(§2) Cellular drug resistance was determined using the antiproliferation assay described above.

[3] = tested on: human non small cell lung cancer cell line H460; assay: Antiproliferation (cytotoxicity) assay, 72 hrs under air, Alamar Blue; assay type: cell-based
[4] = tested on: DX5, which over expresses the MDR 1 efflux pump; assay: Efflux pump drug resistance, antiproliferation assay, MDR 1 over expressing line; assay type: cell-based; details: MDR1, 72 h, air, 3 days; read-out: Air 3d DX5 prol. IC50
Protocol: as §1, §2

[5] = tested on: Messa ovarian carcinoma cell line; assay: Efflux pump drug resistance, antiproliferation assay, parent line; assay type: cell-based; details: Homo sapiens, MES-SA, 72 h, air, 3 days; read-out: Air 3d MESSA prol. IC50
Protocol: […] Cells were treated with test compounds at various concentrations under air for 72 hrs, and then cell viability and proliferation were assessed by Alamar Blue staining.
as §2

[6] = tested on: pcDNA; assay: as above; assay type: cell-based; details: 72 h, air, 3 days; read-out: Air 3d pcDNA prol. IC50
Protocol: as §1, §2

[7] = tested on: human non small cell lung cancer H-460; assay: Xenograft model, subcutaneous, tumor growth inhibition and body weight loss
Protocol: The first three models were produced by subcutaneous implantation of the appropriate number of cells into the flank of the animals. When tumor size was approximately 150 mm^3, animals were randomized into groups of 10 mice each for dosing. One arm was dosed with only vehicle and the results used for the efficacy calculations. […] TGI=(1−T/C) %. T/C ratio was calculated as T/C=(Tn−Ti)/(Cn−Ci), where Tn is tumor volume in treatment group on Day n, and Ti is the initial tumor volume in the treatment group. Cn is the tumor volume of the vehicle group on the last day of measurement. Ci is the initial tumor volume in the vehicle control group. Day n is the last measurement taken when all the animals in the vehicle group were not yet euthanized. Animals were euthanized when tumor volumes grew larger than 2000 mm^3.

[8] = Homo sapiens, NCI-H460, H460, inhibition of proliferation, 72 hrs under air, read-out: IC50

CC[C@@]1(O)C(=O)OCc2c1cc1n(c2=O)Cc2cc3ccccc3nc2-1 [Camptothecin, reference compound]
half-life [1]: 119 min
Cmax ([1]; 5% DMSO, 5% Tween 80 suspension in water, normalized to a 50 mg/kg dose): 0.374 µg/mL
AUC ([1]; normalized to a 50 mg/kg dose): 58.1 µg·min/mL
ratio BCRP over expressing line versus the parent cell line ([2]; ratio of IC50s, BCRP versus pcDNA): 1.6
IC50 ([3]; H460, inhibition of proliferation, 72 hrs under air, read-out: IC50): 14 nM

CC[C@@]1(O)C(=O)OCc2c1c([N+](=O)[O-])c1n(c2=O)Cc2c-1nc1ccccc1c2CO [TH1333]
IC50 [4]: 34 µM
IC50 [5]: 15 µM
IC50 ([2]; 72 h, read-out: Air 3d BCRP prol. IC50 nM, air, 3 days): 7800 nM
3d BCRP/pcDNA ([2]; ratio of IC50s, BCRP over expressing versus parent line, 3 days): 2
IC50 [3, 8]: > 1000 nM
IC50 [6]: 3.9 µM

CC[C@@]1(O)C(=O)OCc2c1c([N+](=O)[O-])c1n(c2=O)Cc2cc3c([N+](=O)[O-])cccc3nc2-1 [TH1385]
IC50 [3, 8]: > 1000 nM

CC[C@@]1(O)C(=O)OCc2c1c([N+](=O)[O-])c1n(c2=O)Cc2c-1nc1ccccc1c2/C=N/OCCN(C)C [TH1522]
IC50 [3, 8]: > 1000 nM

CC[C@@]1(O)C(=O)OCc2c1c([N+](=O)[O-])c1n(c2=O)Cc2c-1nc1cccc([N+](=O)[O-])c1c2/C=N/OCCN1CCOCC1 [TH1523]
IC50 [3, 8]: 830 nM

CC[C@@]1(O)C(=O)OCc2c1c([N+](=O)[O-])c1n(c2=O)Cc2c-1nc1ccccc1c2/C=N/OCCN1CCCCC1 [TH1524]
IC50 [3, 8]: > 1000 nM

CC[C@@]1(O)C(=O)OCc2c1c([N+](=O)[O-])c1n(c2=O)Cc2c-1nc1cccc([N+](=O)[O-])c1c2/C=N/OCCN1CCCCC1 [TH1525]
IC50 [3, 8]: > 1000 nM

CC[C@@]1(O)C(=O)OCc2c1c([N+](=O)[O-])c1n(c2=O)Cc2c-1nc1ccccc1c2CO[N+](=O)[O-] [TH1598]
IC50 ([3]; Homo sapiens, NCI-H460, 72 h): 89 nM

CC[C@@]1(O)C(=O)OCc2c1c(N)c1n(c2=O)Cc2c-1nc1ccccc1c2CO [TH1599]
IC50 [3, 8]: 4.3 nM

CC[C@@]1(O)C(=O)OCc2c1c([N+](=O)[O-])c1n(c2=O)Cc2c-1nc1ccccc1c2CC[Si](C)(C)C [TH1626]
IC50 [3, 8]: > 1000 nM

CC[C@@]1(O)C(=O)OCc2c1c([N+](=O)[O-])c1n(c2=O)Cc2c-1nc1ccccc1c2CC[Si](C)(C)O [TH1627]
IC50 [3, 8]: > 1000 nM

CC[C@@]1(O)C(=O)OCc2c1c(N)c1n(c2=O)Cc2c-1nc1ccccc1c2CC[Si](C)(C)O [TH1628]
IC50 [3, 8]: 62 nM

CC[C@@]1(O)C(=O)OCc2c1c(N)c1n(c2=O)Cc2c-1nc1ccccc1c2CC[Si](C)(C)C [TH1631]
IC50 [3, 8]: 7.4 nM

CC[C@@]1(O)C(=O)OCc2c1c([N+](=O)[O-])c1n(c2=O)Cc2c-1nc1cccc([N+](=O)[O-])c1c2Br [TH1636]
IC50 [3, 8]: 6200 nM

CC[C@@]1(O)C(=O)OCc2c1c(N)c1n(c2=O)Cc2c-1nc1ccccc1c2CC(C)(C)C [TH1643]
IC50 [3, 8]: 43 nM

CC[C@@]1(O)C(=O)OCc2c1c([N+](=O)[O-])c1n(c2=O)Cc2c-1nc1ccccc1c2CC(C)(C)C [TH1644]
IC50 [3, 8]: 800 nM

CCCc1c2c(nc3ccccc13)-c1c([N+](=O)[O-])c3c(c(=O)n1C2)COC(=O)[C@]3(O)CC [TH1650]
TGI (%) ([7]; H460, PO, QD × 5/wk, 2 weeks, 40 mg/Kg): 85%
Max. BWL (%) ([7]; mouse, in vivo, po, 40 mg/kg): 6.7%
IC50 [3, 8]: 685 nM

CC[C@@]1(O)C(=O)OCc2c1c([N+](=O)[O-])c1n(c2=O)Cc2c-1nc1ccccc1c2C=O [TH1762, 7-formyl-14-nitro camptothecin]
IC50 [3, 8]: 7200 nM

CC[C@@]1(O)C(=O)OCc2c1c([N+](=O)[O-])c1n(c2=O)Cc2c-1nc1ccccc1c2C#N [TH1766]
IC50 [3, 8]: > 1000 nM

CC[C@@]1(O)C(=O)OCc2c1c([N+](=O)[O-])c1n(c2=O)Cc2c-1nc1ccccc1c2/C=N/N1CCOCC1 [TH1767]
IC50 [3, 8]: 6000 nM

CC[C@@]1(O)C(=O)OCc2c1c([N+](=O)[O-])c1n(c2=O)Cc2c-1nc1ccccc1c2/C=N/NCCO [TH1768]
IC50 [3, 8]: 6600 nM

CC[C@@]1(O)C(=O)OCc2c1c(N)c1n(c2=O)Cc2c-1nc1ccccc1c2CN [TH1769]
IC50 [3, 8]: 330 nM

CC[C@@]1(O)C(=O)OCc2c1c([N+](=O)[O-])c1n(c2=O)Cc2c-1nc1ccccc1c2/C=C/N1CCN(C)CC1 [TH1770]
IC50 [3, 8]: 9100 nM

C=CCO/N=C/c1c2c(nc3ccccc13)-c1c([N+](=O)[O-])c3c(c(=O)n1C2)COC(=O)[C@]3(O)CC [TH1771]
IC50 [3, 8]: > 10000 nM

CC[C@@]1(O)C(=O)OCc2c1c(N)c1n(c2=O)Cc2c-1nc1ccccc1c2/C=N/N1CCN(C)CC1 [TH1775]
IC50 [3, 8]: 26 nM

CC[C@@]1(O)C(=O)OCc2c1c([N+](=O)[O-])c1n(c2=O)Cc2c-1nc1ccccc1c2/C=N/OCC1CO1 (some centres unmarked) [TH1776]
IC50 [3, 8]: 3200 nM

CC[C@@]1(O)C(=O)OCc2c1c(N)c1n(c2=O)Cc2c-1nc1ccccc1c2/C=N/N1CCOCC1 [TH1777]
IC50 [3, 8]: 16 nM

CC[C@@]1(O)C(=O)OCc2c1c(N)c1n(c2=O)Cc2c-1nc1ccccc1c2/C=N/NCCO [TH1778]
IC50 [3, 8]: 270 nM

CC[C@@]1(O)C(=O)OCc2c1c([N+](=O)[O-])c1n(c2=O)Cc2c-1nc1ccccc1c2/C=N/N(CCO)C(C)=O [TH1780]
IC50 [3, 8]: 28000 nM

CCOC(=O)/C=C/c1c2c(nc3ccccc13)-c1c([N+](=O)[O-])c3c(c(=O)n1C2)COC(=O)[C@]3(O)CC [TH1781]
IC50 [3, 8]: 28000 nM

CC[C@@]1(O)C(=O)OCc2c1c(N)c1n(c2=O)Cc2c-1nc1ccccc1c2/C=N/N(CCO)C(C)=O [TH1783]
IC50 [3, 8]: 460 nM

CC[C@@]1(O)C(=O)OCc2c1c([N+](=O)[O-])c1n(c2=O)Cc2c-1nc1ccccc1c2/C=C/C(C)=O [TH1784]
IC50 [3, 8]: 4900 nM

CC[C@@]1(O)C(=O)OCc2c1c(N)c1n(c2=O)Cc2c-1nc1ccccc1c2C(OC)OC [TH1785]
IC50 [3, 8]: 39 nM

CC[C@@]1(O)C(=O)OCc2c1c([N+](=O)[O-])c1n(c2=O)Cc2c-1nc1ccccc1c2/C=C/C(=O)OC(C)(C)C [TH1786]
IC50 [3, 8]: 21000 nM

CCOC(=O)CCc1c2c(nc3ccccc13)-c1c(N)c3c(c(=O)n1C2)COC(=O)[C@]3(O)CC [TH1787]
IC50 [3, 8]: 12 nM

CCOC(=O)/C=C/c1c2c(nc3ccccc13)-c1c(N)c3c(c(=O)n1C2)COC(=O)[C@]3(O)CC [TH1789]
IC50 [3, 8]: 31 nM

CC[C@@]1(O)C(=O)OCc2c1c(N)c1n(c2=O)Cc2c-1nc1ccccc1c2CCC(=O)OC(C)(C)C [TH1790]
IC50 [3, 8]: 46 nM

CC[C@@]1(O)C(=O)OCc2c1c([N+](=O)[O-])c1n(c2=O)Cc2c-1nc1ccccc1c2/C=N/N(CCO)C(=O)C(C)(C)C [TH1791]
IC50 [3, 8]: 4000 nM

CC[C@@]1(O)C(=O)OCc2c1c(N)c1n(c2=O)Cc2c-1nc1ccccc1c2/C=N/N(CCO)C(=O)C(C)(C)C [TH1793]
IC50 [3, 8]: 19 nM

CC[C@@]1(O)C(=O)OCc2c1c([N+](=O)[O-])c1n(c2=O)Cc2c-1nc1ccccc1c2/C=N/N(CCO)C(=O)C(C)C [TH1794]
IC50 [3, 8]: 2300 nM

CC[C@@]1(O)C(=O)OCc2c1c(N)c1n(c2=O)Cc2c-1nc1ccccc1c2/C=N/N(CCO)C(=O)C(C)C [TH1796]
IC50 [3, 8]: 12 nM

CC[C@@]1(O)C(=O)OCc2c1c([N+](=O)[O-])c1n(c2=O)Cc2c-1nc1ccccc1c2/C=N/N(CCO)C(=O)c1ccccc1 [TH1797]
IC50 [3, 8]: 40000 nM

CC[C@@]1(O)C(=O)OCc2c1c([N+](=O)[O-])c1n(c2=O)Cc2c-1nc1ccccc1c2/C=N/N(CCOS(C)(=O)=O)S(C)(=O)=O [TH1798]
IC50 [3, 8]: 2500 nM

CC[C@@]1(O)C(=O)OCc2c1c(N)c1n(c2=O)Cc2c-1nc1ccccc1c2/C=N/N(CCOS(C)(=O)=O)S(C)(=O)=O [TH1799]
IC50 [3, 8]: 8.1 nM

CC[C@@]1(O)C(=O)OCc2c1c(N)c1n(c2=O)Cc2c-1nc1ccccc1c2/C=N/N(CCO)C(=O)c1ccccc1 [TH1800]
IC50 [3, 8]: 220 nM

CC[C@@]1(O)C(=O)OCc2c1c(N)c1n(c2=O)Cc2c-1nc1ccccc1c2C#N [TH1801]
IC50 [3, 8]: 23 nM

CC[C@@]1(O)C(=O)OCc2c1c([N+](=O)[O-])c1n(c2=O)Cc2c-1nc1ccccc1c2/C=N/c1ccccc1O [TH1803]
IC50 [3, 8]: 3600 nM

CC[C@@]1(O)C(=O)OCc2c1c([N+](=O)[O-])c1n(c2=O)Cc2c-1nc1ccccc1c2/C=N/c1ccc(C(C)(C)C)cc1 [TH1804]
IC50 [3, 8]: > 50000 nM

CC[C@@]1(O)C(=O)OCc2c1c([N+](=O)[O-])c1n(c2=O)Cc2c-1nc1ccccc1c2/C=N/c1c(F)c(F)c(O)c(F)c1F [TH1805]
IC50 [3, 8]: 49000 nM

CC[C@@]1(O)C(=O)OCc2c1c(N)c1n(c2=O)Cc2c-1nc1ccccc1c2/C=N/c1ccc(C(C)(C)C)cc1 [TH1809]
IC50 [3, 8]: 1400 nM

CC[C@@]1(O)C(=O)OCc2c1c(N)c1n(c2=O)Cc2c-1nc1ccccc1c2/C=C/C(=O)OC(C)(C)C [TH1811]
IC50 [3, 8]: 14 nM

CC[C@@]1(O)C(=O)OCc2c1c([N+](=O)[O-])c1n(c2=O)Cc2c-1nc1ccccc1c2/C=N/N1CCOCOC1 [TH1812]
IC50 [3, 8]: 2800 nM

CC[C@@]1(O)C(=O)OCc2c1c(N)c1n(c2=O)Cc2c-1nc1ccccc1c2CNCC(C)(C)C [TH1814]
IC50 [3, 8]: 15 nM

CC[C@@]1(O)C(=O)OCc2c1c(N)c1n(c2=O)Cc2c-1nc1ccccc1c2/C=N/N1CCOCOC1 [TH1816]
IC50 [3, 8]: 23 nM
